In patent publication US20250345329A1, “HETEROARYL DERIVATIVE COMPOUND AND USES THEREOF” (VORONOI, INC., priority 2022, published 2025):

What was measured:
[1] = system: Ba/F3 expressing EGFR Del19/T790M/C797S mutations; assay: Inhibitory activity on proliferation of Ba/F3 cell overexpressing EGFR C797S (Cell Titer-Glo); assay type: cell-based; details: Mus musculus, BaF3; 72 hours treatment, cell growth rate vs control; read-out: Ba/F3 (EGFR DTC) GI50
Protocol: <Experimental Example 2> Evaluation of Inhibitory Activity on Proliferation of Ba/F3 Cell Overexpressing EGFR C797S
The following experiments were performed to evaluate the inhibitory activity of the compounds according to the present invention on the proliferation of Ba/F3 expressing EGFR Del19/T790M/C797S mutations.
Ba/F3 cells were cultured in RPMI-1640 medium supplemented with 10% fetal bovine serum (FBS), and 3000 cells were seeded into each well of a white clear bottom 96 well plate (Corning) 24 hours prior to compound treatment. The compounds were diluted in dimethyl sulfoxide (3-fold dilution, total of 12 concentrations) and injected at 1 μl each so that the final concentration was […] to 5 μM. After 72 hours post treatment with compounds, living cells were reacted in a 37° C., CO2 incubator for […], followed by 10 minutes at room temperature using Cell Titer-Glo luminescent cell-viability reagent (Promega), and the luminescence intensity thereof was measured using a reader (SynergyNeo2, Biotek). The result values were calculated as a cell growth rate (%) compared to the control group. GI50 values were calculated using the GraphPad Prism version 8.4.3 (GraphPad software Inc., San Diego) program.

[2] = biological target: T1, human EGFR (d746-750/T790M/C797S) (Homo sapiens, UniProt P00533, C797S/DEL746-750/T790M); assay: EGFR C797S enzyme inhibition activity (ADP-Glo kinase assay); assay type: biochemical; details: purified enzyme 3 ng, ATP 5 μM, 25° C., 1 hour, luminescence; read-out: EGFR DTC Enzyme IC50
T1 construct: human EGFR (d746-750/T790M/C797S) (668-end, SignalChem); purchased SignalChem
T1 sequence (P00533 with tags, fused parts or gaps DEL746-750/T790M/C797S): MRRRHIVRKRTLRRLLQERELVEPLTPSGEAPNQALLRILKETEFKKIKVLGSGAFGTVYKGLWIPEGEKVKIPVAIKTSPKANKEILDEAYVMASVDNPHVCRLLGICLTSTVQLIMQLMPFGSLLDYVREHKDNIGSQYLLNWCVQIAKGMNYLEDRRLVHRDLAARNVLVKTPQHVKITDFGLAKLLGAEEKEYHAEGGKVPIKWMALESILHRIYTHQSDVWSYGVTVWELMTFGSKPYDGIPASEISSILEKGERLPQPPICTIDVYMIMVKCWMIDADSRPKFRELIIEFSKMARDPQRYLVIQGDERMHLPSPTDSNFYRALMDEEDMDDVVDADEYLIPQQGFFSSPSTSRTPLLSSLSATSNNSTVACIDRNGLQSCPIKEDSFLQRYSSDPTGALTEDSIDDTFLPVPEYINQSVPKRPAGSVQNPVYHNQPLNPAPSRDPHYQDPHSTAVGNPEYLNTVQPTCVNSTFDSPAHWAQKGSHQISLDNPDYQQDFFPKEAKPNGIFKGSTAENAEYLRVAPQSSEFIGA
Protocol: <Experimental Example 1> Evaluation of EGFR C797S Enzyme Inhibition Activity
The compounds according to the present invention were reacted together with purified human EGFR (d746-750/T790M/C797S) (668-end, SignalChem) enzyme and a specific substrate and evaluated for enzyme inhibitory activity as described below. The reaction buffer consisted of 40 mM Tris-HCl pH 7.4, 20 mM MgCl2, 0.5 mg/ml BSA, and 50 μM DTT, and all reactions of the test substances were performed in reaction buffers. The compounds were serially diluted in 12 steps from a 10 mM DMSO stock, and the enzyme activity was measured at the final compound concentrations of 10, 3, 1, 0.3, 0.1, 0.03, 0.01, 0.003, 0.001, 0.0003, 0.0001, and 0 μM. In the assay, human EGFR (d746-750/T790M/C797S) (3 ng) enzyme was reacted with purified ATP (5 μM) and enzyme substrate (0.2 μg) at 25° C. for 1 hour, and the enzyme activity was determined using the in vitro ADP-Glo™ kinase assay (Promega). The enzyme activity inhibition was measured via luminescence by reacting the enzyme activity reaction solution, ADP-Glo reaction solution, and enzyme activity detection solution in a 2:2:1 ratio. Based on the luminescence of the enzyme activity of the solvent control group that was not treated with the compound, the degree of the enzyme activity inhibition depending on the treatment concentration of each compound was calculated, wherein the concentration of each compound that inhibited the enzyme activity by 50% was determined as the IC50 (nM) value, which was obtained using GraphPad Prism 8.4.3 (GraphPad software Inc., San Diego).

Compound | GI50 [1] [nM] | IC50 [2] [nM]
CC(C)Nc1cc(Nc2ccnc(-c3cnn(S(=O)(=O)C4CC4)c3)n2)ncc1C(=O)NC1CCN(C(=O)OC(C)(C)C)C1 (centres unmarked) [Example 47, tert-butyl 3-(6-((2-(1-(cyclopropylsulfonyl)-1H-pyrazol-4-yl)pyrimidin-4-yl)amino)-4-(isopropylamino)nico-tinamido)pyrrolidine-1-carboxylate] | 500 to 5000 | 50 to 500
CC(C)Nc1cc(Nc2ccnc(-c3cnn(S(=O)(=O)C4CC4)c3)n2)ncc1C(=O)N1CC(C#N)C1 [Example 9, 1-(6-((2-(1-(cyclopropylsulfonyl)-1H-pyrazol-4-yl)pyrimidin-4-yl)amino)-4-(isopropylamino)nico-tinoyl)azetidine-3-carbonitrile] | 500 to 5000 | < 50
CC(C)Nc1cc(Nc2ccnc(-c3cnn(S(=O)(=O)C4CC4)c3)n2)ncc1C(=O)NCC1CCN(C)CC1 [Example 51, 6-((2-(1-(cyclopropylsulfonyl)-1H-pyrazol-4-yl)pyrimidin-4-yl)amino)-4-(isopropylamino)-N-((1-methylpiperidin-4-yl)methyl)nicotinamide] | 500 to 5000 | < 50
CC(C)Nc1cc(Nc2ccnc(-c3cnn(S(=O)(=O)C4CC4)c3)n2)ncc1C(=O)NC1CC(F)(F)C1 [Example 99, 6-((2-(1-(cyclopropylsulfonyl)-1H-pyrazol-4-yL)pyrimidin-4-yl)amino)-N-(3,3-difluorocyclobutyl)-4-(isopropylamino)nico-tinamide] | < 500 | 50 to 500
CC(C)Nc1cc(Nc2ccnc(-c3cnn(S(=O)(=O)C4CC4)c3)n2)ncc1C(=O)N1CC2(C1)CN(S(C)(=O)=O)C2 [Example 66, (6-((2-(1-(cyclopropylsulfonyl)-1H-pyrazol-4-yl)pyrimidin-4-yl)amino)-4-(isopropylamino)pyri-din-3-yl)(6-(methylsulfonyl)-2,6-diazaspiro[3.3]heptan-2-yl)methanone] | 500 to 5000 | < 50
CO[C@H]1CCN(c2nccc(Nc3cc(NC(C)C)c(C(=O)Nc4cc(N5CCN(C)CC5)cc(C(C)(C)C#N)c4)cn3)n2)C[C@H]1F (relative stereo) [Example 42, N-(3-(2-cyanopropan-2-yl)-5-(4-methylpiperazin-1-yl)phenyl)-6-((2-(cis-3-fluoro-4-methoxypiperidin-1-yl)pyrimidin-4-yl)amino)-4-(isopropylamino)nico-tinamide] | 500 to 5000 | < 50
CC(C)Nc1cc(Nc2ccnc(-c3cnn(S(=O)(=O)C4CC4)c3)n2)ncc1C(=O)NC1CCS(=O)(=O)C1 (centres unmarked) [Example 36, 6-((2-(1-(cyclopropylsulfonyl)-1H-pyrazol-4-yl)pyrimidin-4-yl)amino)-N-(1,1-dioxydotetrahydrothi-ophen-3-yl)-4-(isopropylamino)nico-tinamide] | 500 to 5000 | < 50
CC(C)Nc1cc(Nc2ccnc(-c3cnn(S(=O)(=O)C4CC4)c3)n2)ncc1C(=O)Nc1cnn(S(=O)(=O)C2CC2)c1 [Example 32, N-(1-(cyclopropylsulfonyl)-1H-pyrazol-4-yl)-6-((2-(1-(cyclopropylsulfonyl)-1H-pyrazol-4-yL)pyrimidin-4-yl)amino)-4-(isopropylamino)nico-tinamide] | 500 to 5000 | 50 to 500

Continued, values first:

GI50 [1] [nM] | IC50 [2] [nM] | Compound
< 500 | < 50 | C[C@H]1CCOc2c(cnn2C)-c2nccc(n2)Nc2cc(c(C(=O)NCC3CCCC3)cn2)N1 [Example 86, (S)-N-(cyclopentylmethyl)-1^1,6-dimethyl-1^1H-9-oxa-3,5-diaza-2(2,4)-pyrimidina-4(2,4)-pyridina-1(4,5)-pyrazolacyclo-nonaphane-4^5-carboxamide]
< 500 | < 50 | CC(C)Nc1cc(Nc2ccnc(-c3cnn(S(=O)(=O)C4CC4)c3)n2)ncc1C(=O)NCCN1CCOCC1 [Example 83, 6-((2-(1-(cyclopropylsulfonyl)-1H-pyrazol-4-yl)pyrimidin-4-yl)amino)-4-(isopropylamino)-N-(2-morpholinoethyl)nico-tinamide]
< 500 | < 50 | COC(=O)c1cnc2cc1N[C@@H](C)CCOc1c(cnn1C)-c1nccc(n1)N2 [Example 102, methyl(S)-1^1,6-dimethyl-1^1H-9-oxa-3,5-diaza-2(2,4)-pyrimidina-4(2,4)-pyridina-1(4,5)-pyrazolacyclo-nonaphane-4^5-carboxylate]
< 500 | < 50 | C[C@H]1CCOc2c(cnn2C)-c2nccc(n2)Nc2cc(c(C(=O)Nc3cccc(N4CCN(C)CC4)c3)cn2)N1 [Example 100, (S)-1^1,6-dimethyl-N-(3-(4-methylpiperazin-1-yl)phenyl)-1^1H-9-oxa-3,5-diaza-2(2,4)-pyrimidina-4(2,4)-pyridina-1(4.5)-pyrazolacyclo-nonaphane-4^5-carboxamide]
< 500 | < 50 | CC(C)Nc1cc(Nc2ccnc(-c3cnn(S(=O)(=O)C4CC4)c3)n2)ncc1C(=O)NCC#N [Example 72, N-(cyanomethyl)-6-((2-(1-(cyclopropylsulfonyl)-1H-pyrazol-4-yl)pyrimidin-4-yl)amino)-4-(isoporpylamino)nico-tinamide]
500 to 5000 | 50 to 500 | CC(C)Nc1cc(Nc2ccnc(-c3cnn(S(=O)(=O)C4CC4)c3)n2)ncc1C(=O)NCCCN(C)C(=O)OC(C)(C)C [Example 58, tert-butyl (3-(6-((2-(1-(cyclopropylsulfonyl)-1H-pyrazol-4-yl)pyrimidin-4-yl)amino)-4-(isopropylamino)nico-tinamido)propyl)(meth-yl)carbamate]
500 to 5000 | 50 to 500 | CC(C)Nc1cc(Nc2ccnc(-c3cnn(S(=O)(=O)C4CC4)c3)n2)ncc1C(=O)NCc1ccc(C#N)cc1 [Example 55, N-(4-cyanobenzyl)-6-((2-(1-(cyclopropylsulfonyl)-1H-pyrazol-4-yl)pyrimidin-4-yl)amino)-4-(isopropylamino)nico-tinamide]
500 to 5000 | 50 to 500 | CO[C@H]1CCN(c2nccc(Nc3cc(NC(C)C)c(C(=O)NCCc4ccccc4)cn3)n2)C[C@H]1F (relative stereo) [Example 96, 6-((2-(cis-3-fluoro-4-methoxypiperidin-1-yl)pyrimidin-4-yl)amino)-4-(isopropylamino)-N-phenethylnicotinamide]
500 to 5000 | < 50 | CC(C)Nc1cc(Nc2ccnc(-c3cnn(S(=O)(=O)C4CC4)c3)n2)ncc1C(=O)NCCCN(C)C [Example 34, 6-((2-(1-(cyclopropylsulfonyl)-1H-pyrazol-4-yl)pyrimidin-4-yl)amino)-N-(3-(dimethylamino)pro-pyl)-4-(isopropylamino)nico-tinamide]
500 to 5000 | < 50 | C[C@H]1CCOc2c(cnn2C)-c2nccc(n2)Nc2cc(c(C(=O)NC(CCN(C)C)c3ccccc3)cn2)N1 (stereo partly drawn) [Example 120, (6S)-N-(3-(dimethylamino)-1-phenylpropyl)-1^1,6-dimethyl-1^1H-9-oxa-3,5-diaza-2(2,4)-pyrimidina-4(2,4)-pyridina-1(4,5)-pyrazolacyclo-nonaphane-4^5-carboxamide]
< 500 | < 50 | C[C@H]1CCOc2c(cnn2C)-c2nccc(n2)Nc2cc(c(C(=O)NCC#N)cn2)N1 [Example 80, (S)-N-(cyanomethyl)-1^1,6-dimethyl-1^1H-9-oxa-3,5-diaza-2(2,4)-pyrimidina-4(2,4)-pyridina-1(4,5)-pyrazolacyclo-nonaphane-4^5-carboxamide]
